Activity calls are given as the source filed them. The rule behind the calls is not given here.
Molecular target: Chymotrypsinogen A (Bos taurus) (UniProt P00766)
Assay: Inhibition of bovine alpha-Chymotrypsin up to 25 ug/ml using Ala-Ala-Phe-p-nitroanilide as substrate preincubated for 15 mins followed by substrate addition and measured after 1 hr by colorimetric method

SMILES | inhibition
COC1=C(Br)[C@H](O)[C@@]2(C=C1Br)CC(C(=O)NCCCOc1c(Br)cc(C/C(=N\O)C(=O)NCCc3c[nH]cn3)cc1Br)=NO2 | inactive
COC(=O)C1=NO[C@]2(C=C(Br)C(OC)=C(Br)[C@@H]2O)C1 | inactive
COC(=O)C(O)CNC(=O)C1=NO[C@]2(C=C(Br)C(OC)=C(Br)[C@@H]2O)C1 (some centres not stated) | inactive
COC1=C(Br)[C@H](O)[C@@]2(C=C1Br)CC(C(=O)NCCc1c[nH]cn1)=NO2 | inactive
COC(=O)CNC(=O)C1=NO[C@]2(C=C(Br)C(OC)=C(Br)[C@@H]2O)C1 | inactive
COC1=C(Br)[C@@H](O)[C@]2(C=C1Br)CC(C(=O)NCCCc1cnc(N)[nH]1)=NO2 | inactive
COc1c(Br)cc(C/C(=N\O)C(=O)NCCc2c[nH]cn2)c(O)c1Br | inactive

From ChEMBL document CHEMBL4627386, “Bromo-spiroisoxazoline Alkaloids, Including an Isoserine Peptide, from the Caribbean Marine Sponge Aplysina lacunosa” (J Nat Prod, 2020)
